From patent US4874862A, “Process for preparing guanine derivatives” (Warner-Lambert Company, priority 1987, dated 1989)

System: T-cells
Assay: standard test of selective cytotoxicity for T-cells in the presence of 2'-deoxyguanosine
Assay type: cell-based
Details: in the presence of 10 uM of 2'-deoxyguanosine
Method: PNP-4 activity was measured radiochemically by measuring the formation of [^14 -C]-hypoxanthine from [^14 -C]-inosine [Biomedicine, 33, 39 (1980)] using human erythrocyte as the enzyme source. The same compounds also were found by a standard test (Science, 214, 1137, (1981)] to be selectively cytotoxic for T-cells in the presence of 2'-deoxyguanosine at a similar concentration range. For example, 8-amino-9-[(4-methylphenyl)methyl]guanine is selectively cytotoxic to T-cells at a concentration of about 3.1 uM in the presence of 10 uM of 2'-deoxyguanosine. Similarly, 8-amino-9-[(4-methoxyphenyl)methyl]guanine is selectively cytotoxic to T-cells at a concentration of about 1.1 uM in the presence of 10 uM of 2'-deoxyguanosine. On the other hand, these compounds were nontoxic to B-cells in the presence or absence of the same amount of 2'-deoxyguanosine. Since T-cells play a central role in immune response, use of the compounds of the invention is contemplated for the immunoregulation of rejection in transplantation and autoimmune disease such as rheumatoid arthritis, systemic lupus erythematosus, inflammatory bowel disease, cancer, juvenile diabetes, myasthenia gravis, multiple sclerosis, and viral diseases. […]

Structure (SMILES)	concentration at which selectively cytotoxic to T-cells
Cc1ccc(Cn2c(N)nc3c(=O)[nH]c(N)nc32)cc1 [8-amino-9-[(4-methylphenyl)methyl]guanine]	about 3.1 uM
COc1ccc(Cn2c(N)nc3c(=O)[nH]c(N)nc32)cc1 [8-amino-9-[(4-methoxyphenyl)methyl]guanine]	about 1.1 uM
